Positions of bridges follow the written chain, without caps; N, C: chain ends. No end group written: not given here. FeTCPP = ferriporphyrin at the N-terminus; CAA = cis-aconitic anhydride moiety
Key:
[1] = test system: MCF-7/MDR xenograft tumors; test: In vivo antitumor evaluation in MCF-7/MDR xenografted model; conditions: for mean tumor volume at 20 days post injection / TGI rate: MCF-7/MDR xenograft, Gi-F-CAA 8 mg/kg, DOX and CPT 3 mg/kg; for mean tumor volume at 20 days post injection: six i.v. injections every 2 days, n = 6; for TGI rate: six i.v. injections, 20 days
Excerpt: Female BALB/c nude mice (~8 weeks, 18 g) were subcutaneously inoculated with 5 × 10^6 MCF-7/MDR cells resuspended in Matrigel. […] Individual tumor volume and bodyweight of mouse after different treatment was collected at 2-days intervals for analysis. Mice were killed at 20 days post treatment unless endpoints were exceeded. Moreover, tumors from all groups were harvested under euthanasia and weighed for analysis at the end of treatment.

[2] = test system: 786-O xenograft tumors; test: In vivo antitumor evaluation in large tumor model (786-O); set-up: species or system BALB/c nude mice; conditions: six i.v. injections at 2-days intervals, Gi-F-CAA 8 mg/kg, Bevacizumab 5 mg/kg
[3] = test system: GPX4; conditions: ref Biochemical and Biophysical Research Communications. 2017, 482, 195e201, cited from earlier work; for GPX4 inhibitory effect at 100 μM: even at 100 μM
Excerpt: page 12: Figure 9. […] The manuscript was revised accordingly. […] More explanation on this may be helpful. For instance, why small molecule inhibitors of GPX4 were not used? I suppose small molecules may penetrate tumor better since they are smaller. Beside ...

[4] = target: GPX4mu; conditions: one-to-one binding; ref Biochemical and Biophysical Research Communications. 2017, 482, 195e201; cited from earlier work
Experimental: page 12: Figure 9. […] The manuscript was revised accordingly. […] More explanation on this may be helpful. For instance, why small molecule inhibitors of GPX4 were not used? I suppose small molecules may penetrate tumor better since they are smaller. Beside ... || page 14: calculation of apparent Kd was added in the method section. Specifically, nanoparticles provide large surface area with exposed GPX4 target to achieve multivalent binding, which could remarkably enhance the binding affinity. This concept has been proven by several papers (Adv. Mater. 2023,35, 2211332; Adv Mater, 2023, doi: 10.1002/adma.202303831). […] Biophys. Res.

[5] = target: T1, GPX4 (Homo sapiens, UniProt P36969); test: Intracellular GPX4 activity detection; type: cell-based; set-up: endogenous in cells; host or cells: EJ bladder cancer cells
T1 sequence (P36969 1-197): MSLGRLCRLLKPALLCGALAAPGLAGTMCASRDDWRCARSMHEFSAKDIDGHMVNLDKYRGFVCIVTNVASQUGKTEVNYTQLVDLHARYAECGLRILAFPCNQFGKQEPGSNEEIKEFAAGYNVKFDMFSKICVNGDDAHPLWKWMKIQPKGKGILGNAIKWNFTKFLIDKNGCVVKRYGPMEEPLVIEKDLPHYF
Experimental: (§1) Initially, EJ cells (5 × 10^5) were cultured in 6-well plate with a CO2 incubator overnight at 37 °C. […] Next, EJ cells were collected and washed with PBS for 3 times. Afterwards, the cell lysates were collected by centrifugation at 5000 rpm for 10 min at 4 °C after ultrasonic lysis in an ice bath. Finally, the GPX4 activity were measured with a GPX Assay Kit based on the manufacturer’s instructions.

[6] = test system: EJ cells; test: Intracellular GSH content detection; type: cell-based
Experimental: as §1, with “8000 g” for “5000 rpm”, “lysed by freeze-thaw treatment.” for “ultrasonic lysis in an ice bath.”, “GSH contents” for “GPX4 activity”, “GSH” for “GPX”

[7] = ζ-potential in PBS; type: physicochemical; conditions: 40 μM in PBS, pH 7.4; mean of n = 3
Experimental: Supplementary Fig. 12. ζ-potential change of Gi-F-CAA (40 μM) in PBS (0.01 M, pH 7.4 or 6.5) (n=3
experimental repeats). Experiment was independently repeated three times with similar results. Values are
(1 picture or pasted object on this page, not shown here)
Supplementary Fig. 13. ζ-potential of NGi-F-CAA, Gi-F and Gi-F-SA (pH 7.4) (40 μM) in PBS (n=3

[8] = test system: EJ cells; test: Intracellular Fe2+ ions detection; type: cell-based
Experimental: Initially, EJ cells (5 × 10^5) were cultured in confocal dish with a CO2 incubator overnight at 37 °C. […] Afterwards, EJ cells were washed with PBS for 3 times and replaced with culture mediums.

[9] = test system: EJ cells; test: Intracellular LPO content (MDA kit); type: cell-based
Experimental: as §1, with “8000 g” for “5000 rpm”, “lysed by freeze-thaw treatment.” for “ultrasonic lysis in an ice bath.”, “LPO contents” for “GPX4 activity”, “measured by thiobarbituric acid (TBA) reaction” for “measured”, “Malondialdehyde (MDA)” for “GPX”

[10] = test system: EJ cells; test: Cytotoxicity assay (CCK-8) on EJ cells
Experimental: Initially, EJ cells were seeded into 96 well plates at a density of 5 × 10^3 per well and incubated in a CO2 incubator overnight at 37 °C. Subsequently, Gi-F (pH = 7.4), Gi-F-SA (pH = 7.4), NGi-F-CAA (pH = 7.4), NGi-F-CAA (pH = 6.5), Gi-F-CAA (pH = 7.4) and Gi-F-CAA (pH = 6.5) at different concentrations (1, 2, 4, 8, 16, 32, 64, 128 and 256 μM) was added to the cells and further incubated for 48 h. Finally, the cell viability rate was calculated by (Sample wells-Blank wells)/(Control wells-Blank wells) × 100%.

[11] = target: T2, NGi-F-CAA (synthetic construct, cysteine pairing not given here; also: cis-aconitic anhydride on Lys); test: MST
T2 chain: FeTCPP-LKLKLK(CAA)GACLNWPYLPCPV

[12] = target: T3, Gi-F-CAA (synthetic construct, disulfide 9-17 (inferred)); test: MST
T3 chain: FeTCPP-LKLKLK(CAA)GACNWLPLYPCPV

[13] = target: T4, Gi-F nanoparticle (synthetic construct, disulfide 9-17 (inferred); also: self-assembled nanoparticle); test: MST
T4 chain: FeTCPP-LKLKLKGACNWLPLYPCPV

Molecule: CC[C@@]1(O)C(=O)OCc2c1cc1n(c2=O)Cc2cc3ccccc3nc2-1 [CPT]
- mean tumor volume at 20 days post injection [1]: 1095 mm^3
- TGI rate [1]: 39%
- Tumor weight ([1]; mice 1): 0.95 g
- Tumor weight ([1]; mice 2): 0.87 g
- Tumor weight ([1]; mice 3): 1 g
- Tumor weight ([1]; mice 4): 0.65 g
- Tumor weight ([1]; mice 5): 0.9 g
- Tumor weight ([1]; mice 6): 0.74 g

Molecule: COc1cccc2c1C(=O)c1c(O)c3c(c(O)c1C2=O)C[C@@](O)(C(=O)CO)C[C@@H]3O[C@H]1C[C@H](N)[C@H](O)[C@H](C)O1 [DOX]
- mean tumor volume at 20 days post injection [1]: 1082 mm^3
- TGI rate [1]: 32%
- Tumor weight ([1]; mice 1): 0.73 g
- Tumor weight ([1]; mice 2): 1.18 g
- Tumor weight ([1]; mice 4): 0.93 g
- Tumor weight ([1]; mice 6): 0.69 g

Molecule: Bevacizumab: clinical antitumor drug Avastin (Bevacizumab) [reference compound]
- tumor volume course in large tumors (~500 mm^3) [2]: temporary retarded growth and got out of control thereafter

Molecule: CRAWYQNYCALRR [GXpep-2]
- GPX4 inhibitory effect at 100 μM [3]: did not have an inhibitory effect
- Kd [4]: 0.61 µM

Molecule: CRVDLQGWRRCRR [GXpep-1]
- GPX4 inhibitory effect at 100 μM [3]: did not have an inhibitory effect
- Kd [4]: 1.8 µM

Molecule: FeTCPP-LKLKLK(CAA)GACLNWPYLPCPV (disulfide) [NGi-F-CAA]
- Relative activity of GPX4 ([5]; EJ cells, 8 h, pH 7.4, PBS group normalized as 1, #1): 0.95
- Relative activity of GPX4 ([5]; EJ cells, 8 h, pH 7.4, PBS group normalized as 1, #2): 0.9
- Relative activity of GPX4 ([5]; EJ cells, 8 h, pH 7.4, PBS group normalized as 1, #3): 1.02
- Relative activity of GPX4 ([5]; pH=7.4, replicate #1): 0.94
- Relative activity of GPX4 ([5]; pH=7.4, replicate #2): 0.94
- Relative activity of GPX4 ([5]; pH=7.4, replicate #3): 1
- Relative GSH levels ([6]; pH=7.4, replicate #1): 0.912
- Relative GSH levels ([6]; pH=7.4, replicate #2): 0.883
- Relative GSH levels ([6]; pH=7.4, replicate #3): 1.029
- Zeta potential (mV) [7]: -26.8 mV
- intracellular Fe^2+ (FerroOrange fluorescence), pH 7.4 ([8]; EJ cells, pH 7.4, 8 h): no remarkable fluorescence
- Concentrations of Fe2+ ions ([8]; pH=7.4, replicate #1): 17.875 ng/104cells
- Concentrations of Fe2+ ions ([8]; pH=7.4, replicate #2): 15.309 ng/104cells
- Concentrations of Fe2+ ions ([8]; pH=7.4, replicate #3): 13.004 ng/104cells
- Relative MDA levels ([9]; pH=7.4, replicate #1): 0.76
- Relative MDA levels ([9]; pH=7.4, replicate #2): 1.04
- Relative MDA levels ([9]; pH=7.4, replicate #3): 1.44
- IC50 ([10]; pH 6.5): 111 µM
- IC50 ([10]; pH 7.4): 155 µM

Molecule: GACNWLPLYPCPV (disulfide 3-11 (inferred)) [GXpep-3]
- IC50 ([3]; read-out: IC50, GPX4 inhibitory activity): 10 µM
- Kd [4]: 8.2 µM

B1: GPX4 (protein)
chain: SLGRLCRLLKPALLCGALAAPGLAGTMCASRDDWRCARSMHEFSAKDIDGHMVNLDKYRGFVCIVTNVASQUGKTEVNYTQLVDLHARYAECGLRILAFPCNQFGKQEPGSNEEIKEFAAGYNVKFDMFSKICVNGDDAHPLWKWMKIQPKGKGILGNAIKWNFTKFLIDKNGCVVKRYGPMEEPLVIEKDLPHYF
- Kd [11]: ~17.6 µM
- Kd [12]: ~1.68 µM
- Kd [13]: ~0.0303 µM

Source: PMC10784468 (Nature Communications, 2024)
